What was measured:
[1] = test system: hSOD1-G93A transgenic mice; assay: Number of mice surviving more than 120 days; type: in vivo; settings: intragastric once a day for 4 weeks, 40 mg/kg (positive control 2 mg/kg), 8-9 mice per group
Experimental: (§1) 10 two-months wild-type BALB/C mice were used as the normal control group, and 110 two-months hSOD1-G93A transgenic mice were randomly divided into 11 groups, 10 mice for each group, and 11 groups are blank group, positive control group, the drug compositions 1-3 of the present invention groups, and the control 1-6 groups, respectively.
All mice were adaptively fed for three weeks, and a rotating rod experiment was performed once a week. The diameter of the rotating rod was 3.5 cm, and its rotating speed was 12 r/min. Experiment on each mouse was carried out three times in parallel, with a 5 min interval. The longest time recorded was the fall time of mice, the mice with a fall time of shorter than 7 min in the third rotating rod experiment were excluded, and then mice received drugs by intragastric administration, in which the normal control group and the blank group were given physiological saline, while the positive control group, the drug combinations 1-3 groups, and the control groups 1-6 were given corresponding drugs, with the volume of 0.5 ml. Amongst, the gavage dose of positive control group was 2 mg/kg body weight, and the gavage dose of drug combinations 1-3 and controls 1-6 groups was both 40 mg/kg body weight. […] In one experiment, each mouse was tested 3 times at interval of 5 minutes, and the longest time recorded was the fall time of mice. […]

[2] = test system: hSOD1-G93A transgenic mice; type: in vivo; settings: for Effect on delaying the progression of amyotrophic lateral sclerosis (in words): judged from fall time and mice surviving more than 120 days; for Falling time (s) On 1st day of gavage / Falling time (s) On 7th day of gavage / Falling time (s) On 14th day of gavage / Falling time (s) On 21th day of gavage / Falling time (s) On 28th day of gavage: intragastric once a day, 40 mg/kg (positive control 2 mg/kg), rod 12 r/min, cut-off 10 min; for Falling time (s) On 1st day of gavage: 1 h after 1st administration; for Falling time (s) On 7th day of gavage: 1 h after 7th administration; for Falling time (s) On 14th day of gavage: 1 h after 14th administration; for Falling time (s) On 21th day of gavage: 1 h after 21st administration; for Falling time (s) On 28th day of gavage: 1 h after 28th administration
Experimental: as §1
All mice were adaptively fed for three weeks, and a rotating rod experiment was performed once a week. The diameter of the rotating rod was 3.5 cm, and its rotating speed was 12 r/min. Experiment on each mouse was carried out three times in parallel, with a 5 min interval. The longest time recorded was the fall time of mice, the mice with a fall time of shorter than 7 min in the third rotating rod experiment were excluded, and then mice received drugs by intragastric administration, in which the normal control group and the blank group were given physiological saline, while the positive control group, the drug combinations 1-3 groups, and the control groups 1-6 were given corresponding drugs, with the volume of 0.5 ml. Amongst, the gavage dose of positive control group was 2 mg/kg body weight, and the gavage dose of drug combinations 1-3 and controls 1-6 groups was both 40 mg/kg body weight. For all of groups, drugs were given once a day for 4 weeks. After 1 h of the 1st, 7th, 14th, 21st, and 28th intragastric administrations, a stick-rotation experiment was performed. In one experiment, each mouse was tested 3 times at interval of 5 minutes, and the longest time recorded was the fall time of mice. […] After the 28th gavage, the mice were continually fed, and the number of mice surviving for more than 120 days in each group was recorded, in which if they were placed in the supine position, the mice could not turn to the prone position within 30 S, and thus they were determined as dead.

Question: What does the source list for `O=C(/C=C/c1ccc(O)c(O)c1)O[C@@H]1C[C@](O)(C(=O)O)C[C@@H](O)[C@H]1O` [Control 1, 3-O-caffeoylquinic acid]?
Answer: Survival numbers (number of mice surviving for more than 120 days) [1]: 3; Effect on delaying the progression of amyotrophic lateral sclerosis (in words) ([2]; gavage 4 weeks): showed to some extent the effect on delaying the progression of amyotrophic lateral sclerosis; Falling time (s) On 1st day of gavage [2]: 468.9 ± 26.1 s; Falling time (s) On 7th day of gavage [2]: 315.3 ± 27.6 s; Falling time (s) On 14th day of gavage [2]: 221.5 ± 22.8 s; Falling time (s) On 21th day of gavage [2]: 127.8 ± 19.5 s; Falling time (s) On 28th day of gavage [2]: 89.1 ± 18.5 s

Question: For `Nc1nc2ccc(OC(F)(F)F)cc2s1` [Positive control, Riluzole], which “Falling time (s) On 1st day of gavage” value [2] is on record?
Answer: The value was 479.2 ± 31.8 s.

Question: And the “Falling time (s) On 7th day of gavage” value [2]?
Answer: Its value is 389.5 ± 27.7 s.

Question: And the “Falling time (s) On 14th day of gavage” value [2]?
Answer: Its value is 259.3 ± 29.5 s.

Question: And the “Falling time (s) On 21th day of gavage” value [2]?
Answer: Its value is 187.4 ± 17.5 s.

Question: And the “Falling time (s) On 28th day of gavage” value [2]?
Answer: The value was 129.3 ± 15.4 s.

Question: For creatine phosphate sodium [Control 6], which “Survival numbers (number of mice surviving for more than 120 days)” value [1] is on record?
Answer: The value was 2.

Question: And the “Indexes for the fall time and the number of mice surviving more than 120 days, comparison between groups (in words)” value ([2]; gavage 4 weeks)?
Answer: The value was “roughly equivalent to those in the blank group”.

Question: What about the “Effect on delaying the progression of amyotrophic lateral sclerosis (in words)” value ([2]; gavage 4 weeks) of the same compound?
Answer: Its value is “don't have obvious effect on delaying the progression of this disease”.

Question: And the “Falling time (s) On 1st day of gavage” value [2]?
Answer: Its value is 475.8 ± 22.8 s.

Question: What about the “Falling time (s) On 7th day of gavage” value [2] of the same compound?
Answer: The value was 284.6 ± 19.3 s.

Question: What about the “Falling time (s) On 14th day of gavage” value [2] of the same compound?
Answer: The value was 155.8 ± 24.8 s.

Question: What about the “Falling time (s) On 21th day of gavage” value [2] of the same compound?
Answer: Its value is 71.3 ± 12.3 s.

Question: What about the “Falling time (s) On 28th day of gavage” value [2] of the same compound?
Answer: Its value is 44.78 ± 11.3 s.

Reference: patent US20210137951A1, “DRUG COMBINATION FOR TREATMENT OF AMYOTROPHIC LATERAL SCLEROSIS, PREPARATION METHOD AND USE THEREOF” (priority 2018, published 2021)
